Assay results: US20210038607A1, “OXADIAZOLYLTHIOPHENE DERIVATIVES USEFUL AS HISTONE DEACETYLASE INHIBITORS” (Karus Therapeutics Limited, priority 2018, published 2021)

Tests used:
Human HDAC8 = target: T1, Human HDAC8 (Homo sapiens, UniProt Q9BY41); assay: HDAC8 biochemical assay, AMC-labeled peptide substrate; details: read-out: HDAC Isoform IC50 (nM) 8
T1 construct: full length with C-terminal His tag, MW=42.6 kDa; His (C); host or cells: baculovirus expression system
T1 sequence (Q9BY41 1-377): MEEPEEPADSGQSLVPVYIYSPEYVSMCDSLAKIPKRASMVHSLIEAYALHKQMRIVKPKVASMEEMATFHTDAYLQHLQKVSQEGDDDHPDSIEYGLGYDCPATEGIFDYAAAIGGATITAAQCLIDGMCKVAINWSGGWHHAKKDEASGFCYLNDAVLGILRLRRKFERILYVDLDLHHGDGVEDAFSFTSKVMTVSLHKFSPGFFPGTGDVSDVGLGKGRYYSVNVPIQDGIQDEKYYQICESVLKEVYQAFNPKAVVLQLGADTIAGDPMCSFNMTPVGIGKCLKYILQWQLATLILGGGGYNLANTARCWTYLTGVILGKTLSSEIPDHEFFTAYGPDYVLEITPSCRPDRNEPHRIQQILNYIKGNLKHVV
Procedure, shortened: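 Full-length human HDAC8 with C-terminal His tag, baculovirus-expressed, 1 ng/ul, with 100 µM RHK(Ac)K(Ac)AMC substrate in Tris-HCl pH8.0 buffer with BSA, 1% DMSO. Incubated 2 h at 30° C, then developer added to cleave deacetylated substrate; fluorescence read at 360/460 Ex/Em.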

Human HDAC5 = target: T2, Human HDAC5 (Homo sapiens, UniProt Q9UQL6); assay: HDAC5 biochemical assay, class IIa-specific substrate; details: read-out: HDAC Isoform IC50 (nM) 5
T2 construct: full length with C-terminal His tag, MW=51.1 kDa; His (C); host or cells: baculovirus expression system
Procedure, shortened: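 Full-length C-terminal His-tagged HDAC5 from baculovirus (0.05 ng/ul) incubated 30 min at room temperature with 50 μM Boc-Lys(trifluoroacetyl)-AMC and compound, Tris pH 8.0 buffer with BSA, 1% DMSO. Developer then releases AMC; fluorescence 360/460 nm.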

Human HDAC9 = target: T3, Human HDAC9 (Homo sapiens, UniProt Q9UKV0); assay: HDAC9 biochemical assay, class IIa-specific substrate; details: read-out: HDAC Isoform IC50 (nM) 9
T3 construct: amino acids 604-1066 with C-terminal His tag; His (C); host or cells: baculovirus expression system
Procedure, shortened: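 HDAC9 residues 604-1066 (C-terminal His tag, baculovirus-expressed) at 0.06 ng/ul with 50 μM class IIa substrate Boc-Lys(trifluoroacetyl)-AMC in Tris-HCl pH 8.0 buffer with BSA and 1% DMSO. 30 min at room temperature, then developer added; fluorescence read at 360/460 nm Ex/Em.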

[1] = target: T4, Complex of human HDAC3 and human NCOR2 (Homo sapiens, UniProt O15379); assay: HDAC3 biochemical assay, AMC-labeled peptide substrate; details: read-out: HDAC Isoform IC50 (nM) 3
T4 construct: full length with C-terminal His tag, MW=49.7 kDa; His (C); host or cells: baculovirus expression system (co-expressed)
Procedure, shortened: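 Baculovirus-coexpressed His-tagged full-length HDAC3 with GST-NCOR2 (aa 395-489), 0.1 ng/ul, deacetylates 50 μM RHKK(Ac)AMC in Tris-HCl pH8.0 with BSA and 1% DMSO, 1 h at 30° C. Developer then cleaves deacetylated substrate; fluorescence read at 360/460 Ex/Em.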

Human HDAC2 = target: T5, Human HDAC2 (Homo sapiens, UniProt Q92769); assay: HDAC2 biochemical assay, AMC-labeled peptide substrate; details: read-out: HDAC Isoform IC50 (nM) 2
T5 construct: full length with C-terminal GST-tag; GST (C); host or cells: baculovirus expression system
Procedure, shortened: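 Full-length human HDAC2 with C-terminal GST tag, baculovirus-expressed, at 0.07 ng/ul with 50 μM RHKK(Ac)AMC substrate in Tris-HCl pH8.0 buffer with BSA, 1% DMSO final. Incubated 1 hour at 30° C with compounds, then developer added; fluorescence read at 360/460 Ex/Em.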

Human HDAC4 = target: T6, Human HDAC4 (Homo sapiens, UniProt P56524); assay: HDAC4 biochemical assay, class IIa-specific substrate; details: read-out: HDAC Isoform IC50 (nM) 4
T6 construct: amino acids 627-1085 with N-terminal GST tag; GST (N); host or cells: baculovirus expression system
Procedure, shortened: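 GST-tagged human HDAC4 (aa 627-1085, baculovirus) at 0.004 ng/ul was incubated 30 min at room temperature with 50 μM class IIa-specific substrate BOC-Lys(trifluoroacetyl)-AMC in Tris-HCl pH 8.0 buffer with BSA, 1% DMSO. Developer then released AMC, read at 360/460 nm.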

T5 sequence (Q92769 whole entry, canonical isoform): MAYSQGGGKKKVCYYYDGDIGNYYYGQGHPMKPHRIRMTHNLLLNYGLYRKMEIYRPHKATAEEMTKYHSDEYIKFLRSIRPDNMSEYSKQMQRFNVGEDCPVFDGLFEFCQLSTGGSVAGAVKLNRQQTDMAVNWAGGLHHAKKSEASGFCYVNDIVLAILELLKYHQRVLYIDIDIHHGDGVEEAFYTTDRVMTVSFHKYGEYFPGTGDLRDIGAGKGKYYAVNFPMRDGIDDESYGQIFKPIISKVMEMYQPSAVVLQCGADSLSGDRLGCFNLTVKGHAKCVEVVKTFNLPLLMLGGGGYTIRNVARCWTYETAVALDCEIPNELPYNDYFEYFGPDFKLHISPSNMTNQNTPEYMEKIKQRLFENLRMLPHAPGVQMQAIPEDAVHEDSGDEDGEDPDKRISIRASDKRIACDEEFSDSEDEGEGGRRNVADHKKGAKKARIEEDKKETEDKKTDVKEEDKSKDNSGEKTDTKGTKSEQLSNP
T6 sequence (P56524 627-1084 limits assumed): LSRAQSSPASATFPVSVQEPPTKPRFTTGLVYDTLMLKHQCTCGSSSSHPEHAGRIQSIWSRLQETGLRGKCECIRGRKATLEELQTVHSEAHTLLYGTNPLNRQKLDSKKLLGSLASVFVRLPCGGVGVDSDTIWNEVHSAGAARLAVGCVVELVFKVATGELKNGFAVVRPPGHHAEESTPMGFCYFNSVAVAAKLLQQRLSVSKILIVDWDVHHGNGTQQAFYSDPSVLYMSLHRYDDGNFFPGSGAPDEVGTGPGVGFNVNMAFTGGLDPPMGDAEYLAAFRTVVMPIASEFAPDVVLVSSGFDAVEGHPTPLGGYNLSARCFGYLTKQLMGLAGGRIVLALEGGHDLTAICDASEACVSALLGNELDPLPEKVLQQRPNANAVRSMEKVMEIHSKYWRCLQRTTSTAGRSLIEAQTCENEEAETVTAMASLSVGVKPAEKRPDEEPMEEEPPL
T4 sequence (O15379 whole entry, canonical isoform): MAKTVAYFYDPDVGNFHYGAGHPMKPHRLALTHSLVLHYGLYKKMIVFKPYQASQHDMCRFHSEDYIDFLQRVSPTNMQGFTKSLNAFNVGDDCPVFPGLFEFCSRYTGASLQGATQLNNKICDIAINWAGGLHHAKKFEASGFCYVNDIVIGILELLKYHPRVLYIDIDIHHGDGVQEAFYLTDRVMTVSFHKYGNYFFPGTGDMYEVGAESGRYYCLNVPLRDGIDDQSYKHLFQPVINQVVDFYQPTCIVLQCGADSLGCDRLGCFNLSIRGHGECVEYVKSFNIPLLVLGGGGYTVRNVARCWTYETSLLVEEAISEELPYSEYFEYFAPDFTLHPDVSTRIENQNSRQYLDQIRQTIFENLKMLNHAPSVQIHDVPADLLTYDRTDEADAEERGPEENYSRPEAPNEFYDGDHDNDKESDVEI
T4 sequence (Q9Y618 395-489 partner limits assumed): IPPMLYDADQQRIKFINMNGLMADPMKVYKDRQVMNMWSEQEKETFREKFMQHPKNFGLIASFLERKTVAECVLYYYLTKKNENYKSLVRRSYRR
T2 sequence (Q9UQL6 656-1122 limits assumed): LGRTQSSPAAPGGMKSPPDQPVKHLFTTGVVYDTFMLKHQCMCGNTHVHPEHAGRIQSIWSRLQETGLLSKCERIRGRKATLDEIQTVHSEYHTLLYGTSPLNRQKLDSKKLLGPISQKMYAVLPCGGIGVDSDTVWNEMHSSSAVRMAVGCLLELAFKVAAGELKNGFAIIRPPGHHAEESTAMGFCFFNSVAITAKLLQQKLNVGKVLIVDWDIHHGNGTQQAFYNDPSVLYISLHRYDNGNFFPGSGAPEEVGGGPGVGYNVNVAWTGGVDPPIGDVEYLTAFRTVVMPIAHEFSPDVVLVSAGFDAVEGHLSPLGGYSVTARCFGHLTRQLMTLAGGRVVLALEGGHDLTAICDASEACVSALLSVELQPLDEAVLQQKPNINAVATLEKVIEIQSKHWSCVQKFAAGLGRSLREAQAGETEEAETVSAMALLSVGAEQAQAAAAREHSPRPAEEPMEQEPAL
T3 sequence (Q9UKV0 604-1066 isoform Q9UKV0-5): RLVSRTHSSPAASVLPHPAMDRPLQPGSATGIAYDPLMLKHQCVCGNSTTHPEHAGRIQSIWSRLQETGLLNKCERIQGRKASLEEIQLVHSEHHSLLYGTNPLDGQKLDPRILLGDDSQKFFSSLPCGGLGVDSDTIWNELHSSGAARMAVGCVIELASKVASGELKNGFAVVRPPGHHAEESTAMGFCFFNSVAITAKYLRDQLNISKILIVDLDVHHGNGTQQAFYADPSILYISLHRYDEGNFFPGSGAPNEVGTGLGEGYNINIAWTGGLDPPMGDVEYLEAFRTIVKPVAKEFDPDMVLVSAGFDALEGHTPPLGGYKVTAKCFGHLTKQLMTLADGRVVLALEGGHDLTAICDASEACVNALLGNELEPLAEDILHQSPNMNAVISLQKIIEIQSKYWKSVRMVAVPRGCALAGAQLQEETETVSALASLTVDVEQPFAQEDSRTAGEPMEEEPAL

Structure (SMILES)	IC50 (Human HDAC8) [nM]	IC50 (Human HDAC5) [nM]	IC50 (Human HDAC9) [nM]	IC50 [1] [nM]	IC50 (Human HDAC2) [nM]	IC50 (Human HDAC4) [nM]
O=C(c1cnnc(N(Cc2ccc(-c3noc(C(F)(F)F)n3)s2)c2cnccn2)c1)N1CCC(F)(F)CC1 [Example FY, 5-(4,4-Difluoropiperidine-1-carbonyl)-N-(pyrazin-2-yl)-N-({5-[5-(trifluoromethyl)-1,2,4-oxadiazol-3-yl]thiophen-2-yl}methyl)pyridazin-3-amine]	≤ 10000	≤ 1000	≤ 10000	> 10000	> 10000	≤ 10000
CN1CCN(C(=O)c2cnnc(N(Cc3ccc(-c4noc(C(F)(F)F)n4)s3)c3cnccn3)c2)CC1 [Example EC, 5-(4-Methylpiperazine-1-carbonyl)-N-(pyrazin-2-yl)-N-({5-[5-(trifluoromethyl)-1,2,4-oxadiazol-3-yl]thiophen-2-yl}methyl)pyridazin-3-amine]	≤ 10000	≤ 10000	≤ 10000	> 10000	> 10000	≤ 10000
FC(F)(F)c1nc(-c2ccc(CN(c3cnccn3)c3ccc(CN4CCOCC4)nn3)s2)no1 [Example FN, 6-[(Morpholin-4-yl)methyl]-N-(pyrazin-2-yl)-N-({5-[5-(trifluoromethyl)-1,2,4-oxadiazol-3-yl]thiophen-2-yl}methyl)pyridazin-3-amine]	≤ 10000	≤ 1000	≤ 10000	> 10000	> 10000	≤ 1000
FC(F)(F)c1nc(-c2ccc(CN(c3cnccn3)c3cc(-c4ccccn4)cnn3)s2)no1 [Example GM, N-(Pyrazin-2-yl)-5-(pyridin-2-yl)-N-({5-[5-(trifluoromethyl)-1,2,4-oxadiazol-3-yl]thiophen-2-yl}methyl)pyridazin-3-amine]	≤ 10000	≤ 10000	≤ 10000	> 10000	> 10000	≤ 10000
NC(=O)c1cnnc(N(Cc2ccc(-c3noc(C(F)(F)F)n3)s2)c2cnccn2)c1 [Example DX, 6-[(Pyrazin-2-yl)({5-[5-(trifluoromethyl)-1,2,4-oxadiazol-3-yl]thiophen-2-yl}methyl)amino]pyridazine-4-carboxamide]	≤ 10000	≤ 500	≤ 10000	≤ 10000	> 10000	≤ 1000
O=C(c1cnnc(N(Cc2ccc(-c3noc(C(F)(F)F)n3)s2)c2cnccn2)c1)N1CCS(=O)(=O)CC1 [Example ED, 4-{6-[(Pyrazin-2-yl)({5-[5-(trifluoromethyl)-1,2,4-oxadiazol-3-yl]thiophen-2-yl}methyl)amino]pyridazine-4-carbonyl}-1λ^6-thiomorpholine-1,1-dione]	≤ 10000	≤ 1000	≤ 10000	> 10000	> 10000	≤ 10000
O=C(c1cnnc(N(Cc2ccc(-c3noc(C(F)(F)F)n3)s2)c2cnccn2)c1)N1CCOCC1 [Example EB, 5-(Morpholine-4-carbonyl)-N-(pyrazin-2-yl)-N-({5-[5-(trifluoromethyl)-1,2,4-oxadiazol-3-yl]thiophen-2-yl}methyl)pyridazin-3-amine]	≤ 10000	≤ 1000	≤ 10000	> 10000	> 10000	≤ 10000
O=C(c1ccc(N(Cc2ccc(-c3noc(C(F)(F)F)n3)s2)c2cnccn2)nn1)N1CC[S+]([O-])CC1 [Example FD, 4-{6-[(Pyrazin-2-yl)({5-[5-(trifluoromethyl)-1,2,4-oxadiazol-3-yl]thiophen-2-yl}methyl)amino]pyridazine-3-carbonyl}-1lambda4-thiomorpholin-1-one]	≤ 10000	≤ 500	≤ 10000	≤ 10000	> 10000	≤ 500
COC1CN(C(=O)c2ccc(N(Cc3ccc(-c4noc(C(F)(F)F)n4)s3)c3cnccn3)nn2)C1 [Example DR, 6-(3-Methoxyazetidine-1-carbonyl)-N-(pyrazin-2-yl)-N-({5-[5-(trifluoromethyl)-1,2,4-oxadiazol-3-yl]thiophen-2-yl}methyl)pyridazin-3-amine]	≤ 10000	≤ 500	≤ 500	≤ 10000	> 10000	≤ 500
CC1(c2cnnc(N(Cc3ccc(-c4noc(C(F)(F)F)n4)s3)c3cnccn3)c2)COC1 [Example GT, 5-(3-Methyloxetan-3-yl)-N-(pyrazin-2-yl)-N-({5-[5-(trifluoromethyl)-1,2,4-oxadiazol-3-yl]thiophen-2-yl}methyl)pyridazin-3-amine]	≤ 10000	≤ 1000	≤ 10000	> 10000	> 10000	≤ 10000

Further lines, results first:

IC50 (Human HDAC8) [nM]	IC50 (Human HDAC5) [nM]	IC50 (Human HDAC9) [nM]	IC50 [1] [nM]	IC50 (Human HDAC2) [nM]	IC50 (Human HDAC4) [nM]	Structure (SMILES)
≤ 10000	≤ 500	≤ 10000	> 10000	> 10000	≤ 1000	CC(=O)Nc1cnnc(N(Cc2ccc(-c3noc(C(F)(F)F)n3)s2)c2cnccn2)c1 [Example FM, N-{6-[(Pyrazin-2-yl)({5-[5-(trifluoromethyl)-1,2,4-oxadiazol-3-yl]thiophen-2-yl}methyl)amino]pyridazin-4-yl}acetamide]
≤ 10000	≤ 500	≤ 1000	> 10000	> 10000	≤ 500	O=C(c1ccc(N(Cc2ccc(-c3noc(C(F)(F)F)n3)s2)c2cnccn2)nn1)N1CCCCC1 [Example FG, 6-(Piperidine-1-carbonyl)-N-(pyrazin-2-yl)-N-({5-[5-(trifluoromethyl)-1,2,4-oxadiazol-3-yl]thiophen-2-yl}methyl)pyridazin-3-amine]
≤ 10000	≤ 10000	≤ 10000	> 10000	> 10000	≤ 10000	O=C(O)c1cnnc(N(Cc2ccc(-c3noc(C(F)(F)F)n3)s2)c2cnccn2)c1 [Example DW, 6-[(Pyrazin-2-yl)({5-[5-(trifluoromethyl)-1,2,4-oxadiazol-3-yl]thiophen-2-yl}methyl)amino]pyridazine-4-carboxylic acid]
≤ 10000	≤ 1000	≤ 10000	> 10000	> 10000	≤ 10000	FC(F)c1cnnc(N(Cc2ccc(-c3noc(C(F)(F)F)n3)s2)c2cnccn2)c1 [Example GV, 5-(Difluoromethyl)-N-(pyrazin-2-yl)-N-({5-[5-(trifluoromethyl)-1,2,4-oxadiazol-3-yl]thiophen-2-yl}methyl)pyridazin-3-amine]
≤ 10000	≤ 1000	≤ 10000	> 10000	> 10000	≤ 10000	O=C(c1cnnc(N(Cc2ccc(-c3noc(C(F)(F)F)n3)s2)c2cnccn2)c1)N1CC2(COC2)C1 [Example FZ, 5-{2-Oxa-6-azaspiro[3.3]heptane-6-carbonyl}-N-(pyrazin-2-yl)-N-({5-[5-(trifluoromethyl)-1,2,4-oxadiazol-3-yl]thiophen-2-yl}methyl)pyridazin-3-amine]
